According to patent US10578610B2, “Peptide regulators of mitochondrial fusion and methods of use” (priority 2016, dated 2020):
Ends that are not written are not given here.

Assays:
[1] = tested on: cultured rat motor neurons infected with adeno-Mfn2 K109A; experiment: Motor neurons infected with adeno-Mfn2 K109A; format: cell-based; conditions: 1 μM for 24 hours vs TAT control
Experimental: The efficacy of TAT-367-384Gly to correct mitochondrial pathology induced by a GTPase-defective Mfn2 mutant was examined in the CMT2A-relevant cell type, motor neurons. Motor neurons were isolated from E17 Sprague-Dawley rats and cultured as described in Wang et al., 2013, Hum Mol Genet 22:4706-4719. After 10 days in culture, neurons were infected twice, 8 hours apart, with 50 MOI of adenoviral WT-Mfn2 or K109A Mfn2 and treated with 1 μM TAT-367-384 Gly or control TAT peptide for 24 hours. Mitochondria of formalin-fixed nerons were labeled with anti-TOM20 (Santa Cruz Biotechnology). Neurons were stained with Hoechst 33342. Laser confocal imaging using a 63× oil objective was used to identify isolated mitochondria for determination of aspect ratio.
Representative anti-TOM20/Hoechst images of formalin-fixed cultured neurons infected with adeno-Mfn2K109A (FIG. 15A) or adeno-WT Mfn2 (FIG. 15B) and treated for 24 h with 1 μM TAT control (Ctrl) or TAT-367-384Gly minipeptide. Scale bars are 10 microns. N=20-23 per treatment group; *=P<0.05 vs Ctrl (Student's t-test).

[2] = tested on: hippocampal and cortical neurons carrying Mfn2 T105M fl/st; experiment: Hippocampal and cortical neurons with induced Mfn2 T105M; format: cell-based, mouse; conditions: Mfn2 T105M induced by adeno-Cre; 1 μM for 24 hours
Experimental: Finally, to test the efficacy of fusion promotion by conformational manipulation in a model of a naturally-occurring human CMT2A mutation, hippocampal and cortical neurons were cultured from mouse pups carrying the conditional Mfn2 T105M fl/st expression allele.
Hippocampal and cortical neurons were prepared from individual P0-P1 mouse pups using a modification of methods described for rat neuronal culture (Mennerick et al., 1995, J Neurophysiol, 73:320-332). Mouse pups were genotyped after the fact to determine presence or absence of the MFN2*T105M transgene; neurons derived from mice lacking the transgene were designated as normal controls. […] Immunoblot of Mfn2 expression in T105M fl/st cortical neurons 72 h after adeno-Cre or adeno-β-gal (Ctrl) is shown in FIG. 16B with quantitative data to the right (n=4). […]
Merged live confocal images of cultured neurons without (no Cre) and with (+Cre) Mfn2 T105M induction, and in Mfn2 T105M-induced neurons 24 h after addition of 1 μM TAT-367-384Gly are shown in FIG. 16C. […] Quantitative data are provided in FIG. 16E; each point is result from one of 3 independently-established Mfn2 T105M neuronal cultures, each with 3 biological replicates of ˜20 neurons. *=P<0.01 vs no Cre; #=P<0.01 vs T105M+Cre.

[3] = tested on: Mfn2 T105M fl/st MEFs; experiment: TAT-minipeptides in MEFs expressing CMT2A mutant hMfn2 T105M; format: cell-based, murine; conditions: for mitochondrial fragmentation / dysmorphology / mitochondrial polarization / depolarization: Mfn2 T105M MEFs, 72 hours after adeno-Cre, 1 μM
Experimental: Wild-type murine embryonic fibroblast cells (MEFs) were prepared from E10.5 C57/b6 mouse embryos. SV-40 T antigen-immortalized Mfn1 null (“Mfn1 KO,” ATCC No. CRL-2992), Mfn2 null (“Mfn2 KO,” ATCC No. CRL-2993) and Mfn1/Mfn2 double null MEFs (“Mfn DKO,” ATCC No. CRL-2994) were purchased from ATCC. MEFs conditionally expressing the human Mfn2 T105M mutation were prepared from E10.5 embryos of C57BL/6-Gt(ROSA)26Sor[tm1(CAG-MFN2*T105M)Dple]/J mice purchased from The Jackson Laboratory (Stock No: 025322). MEFs were maintained in DMEM containing 4.5 g/L glucose (or galactose when specified) supplemented with 10% fetal bovine serum, 1× nonessential amino acids, 2 mM L-glutamine, 100 U/ml penicillin and 100 μg/ml streptomycin.
Models cells harboring a Cre recombinase-inducible mutant human Mfn2 containing the T105M mutation were used (FIG. 13A) because they recapitulate fusion defects caused by compound functional null Mfn2 mutants in […] CMT2A. A time course study of mitochondrial fragmentation after adeno-Cre mediated induction of Mfn2 T105M was performed and the results are shown in FIG. 13B.
It was considered that mitochondrial dysmorphology created by genetic Mfn2 dysfunction in CMT2A might be improved by TAT-367-384Gly if endogenous normal Mfn1 or Mfn2 proteins could be compelled into their active unfolded conformations, thus overcoming dominant inhibition by GTPase Mfn2 mutants. This was tested in MEFs expressing the CMT2A-causal mutant hMfn2 T105M (Calvo et al., 2009, Arch Neurol, 66:1511-1516; Detmer et al., 2008, Hum Mol Genet, 17:367-375) as a conditional flox/stop (fl/st) transgene. […] Parallel adenoviral expression of WT Mfn2 at more than twice the levels of Mfn2 T105M (5-fold vs 2-fold) provoked neither mitochondrial nor cellular toxicity (data not shown). Scale bars are 10 microns. N=3 or 4; *=P<0.05 vs. control, #=P<0.05 vs. Ad-Cre (ANOVA).

[4] = tested on: Mfn null MEFs expressing Mfn2 K109A or Mfn2 AA; experiment: TAT-minipeptides in Mfn null MEFs expressing Mfn2 mutants; format: cell-based, murine; conditions: for mitochondrial morphology: Mfn null MEFs expressing Mfn2 AA
Source text: The efficacy of the minipeptides to correct mitochondrial abnormalities in Mfn null MEFs was further evaluated. In this experiment, several Mfn2 mutants having well-characterized and diverse functional profiles were introduced into Mfn null MEFs. As shown above, mitochondria of MEFs lacking Mfn1 and Mfn2 are highly fragmented. Adenoviral reintroduction of WT Mfn2 corrected dysmorphology in Mfn null MEFs and was required for TAT minipeptides to alter mitochondrial fusion in these cells (FIGS. 12A-12B). By contrast, adenoviral expression of mouse Mfn2 K109A, a GTPase defective mutant (Detmer and Chan, 2007, J Cell Biol, 176:405-414), had no effect on mitochondrial fragmentation in Mfn null MEFs. […] Mitochondrial morphometry in Mfn null MEFs expressing fusion-impaired Mfn2 EE, which has glutamate substitutions to mimic phosphorylation at Mfn2 T111 and […], was more variable (FIG. 12A-12B).

[5] = Mfn null MEFs expressing only Mfn2 K109A

Row | Sequence | mitochondrial fragmentation (aspect ratio) [1] | neuronal mitochondrial dysmorphology with fragmentation, partial depolarization and clumping [2] | mitochondrial fragmentation / dysmorphology [3] | mitochondrial polarization / depolarization [3] | mitochondrial clumping ([3]; cells expressing Mfn2 T105M) | mitochondrial morphology [4] | mitochondrial aspect ratio / mitochondrial pathology [4, 5] | mitochondrial clumping [4, 5]
1 | QIAEAVRGIMDSLHMAARGGYGRKKRRQRRR [TAT-367-384Gly] | fully normalized | largely reversed these abnormalities | rapidly reversed mitochondrial fragmentation | improved mitochondrial polarization | corrected mitochondrial clumping | mitochondrial hyper-elongation | did not correct mitochondrial pathology | mitochondrial clumping induced
2 | QDRLKFIDKQGELLAQDYKLRGGYGRKKRRQRRR [TAT-398-418Gly] | – | – | aggravated mitochondrial dysmorphology | exacerbated mitochondrial depolarization | – | mitochondrial shortening | – | –
